Reference: the supplement of paper PMC10307832

Tests used:
Test in all cases: relative viability (nuclei count vs DMSO), 5 days (fraction); higher = more cells survive
AZD1208 + Luminespib = compound: N[C@@H]1CCCN(c2c(/C=C3\SC(=O)NC3=O)cccc2-c2ccccc2)C1 [AZD1208] + CCNC(=O)c1noc(-c2cc(C(C)C)c(O)cc2O)c1-c1ccc(CN2CCOCC2)cc1 [Luminespib] (partner 0.01 µM)
Procedure, shortened: (§1)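 A single step with final 0.05% Triton X-100, 1% formaldehyde and 1 ug/ml Hoechst fixed the cells and stained nuclei 5 days after treatment. Lung cancer cell lines in 1536-well plates had been treated by pin tool the day after seeding with one drug alone or a fixed anchor-drug dose plus five library-drug doses (not always all listed) in √10 steps, and nuclei were counted on 4× images. Relative viability is the ratio of nuclei in treated wells to nuclei in vehicle wells, taken as the median of duplicate plates.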

XMD14-99 + Decitabine = compound: CN1CCN(CC1)C2=CC(=C(C=C2)NC3=NC(=C(S3)C(=O)C4=C(C=CC=C4Cl)Cl)N)OC [XMD14-99] + Nc1ncn([C@H]2C[C@H](O)[C@@H](CO)O2)c(=O)n1 [Decitabine] (partner 2 µM)
Procedure, shortened: as §1

AZD1208 + Dasatinib = compound: N[C@@H]1CCCN(c2c(/C=C3\SC(=O)NC3=O)cccc2-c2ccccc2)C1 [AZD1208] + Cc1nc(Nc2ncc(C(=O)Nc3c(C)cccc3Cl)s2)cc(N2CCN(CCO)CC2)n1 [Dasatinib] (partner 0.075 µM)
Procedure, shortened: as §1

XMD14-99 + Bortezomib = compound: CN1CCN(CC1)C2=CC(=C(C=C2)NC3=NC(=C(S3)C(=O)C4=C(C=CC=C4Cl)Cl)N)OC [XMD14-99] + CC(C)C[C@H](NC(=O)[C@H](Cc1ccccc1)NC(=O)c1cnccn1)B(O)O [Bortezomib] (partner 0.002 µM)
Procedure, shortened: as §1

Cell Line	relative viability (AZD1208 + Luminespib; first compound 0.08 µM)	relative viability (AZD1208 + Luminespib; first compound 0.253 µM)	relative viability (AZD1208 + Luminespib; first compound 0.8 µM)	relative viability (AZD1208 + Luminespib; first compound 2.53 µM)	relative viability (AZD1208 + Luminespib; first compound 8 µM)	relative viability (XMD14-99 + Decitabine; first compound 0.08 µM)	relative viability (XMD14-99 + Decitabine; first compound 0.8 µM)	relative viability (XMD14-99 + Decitabine; first compound 2.53 µM)	relative viability (XMD14-99 + Decitabine; first compound 8 µM)	relative viability (AZD1208 + Dasatinib; first compound 0.08 µM)	relative viability (AZD1208 + Dasatinib; first compound 0.253 µM)	relative viability (AZD1208 + Dasatinib; first compound 0.8 µM)	relative viability (AZD1208 + Dasatinib; first compound 2.53 µM)	relative viability (AZD1208 + Dasatinib; first compound 8 µM)	relative viability (XMD14-99 + Bortezomib; first compound 0.08 µM)	relative viability (XMD14-99 + Bortezomib; first compound 0.8 µM)	relative viability (XMD14-99 + Bortezomib; first compound 2.53 µM)	relative viability (XMD14-99 + Bortezomib; first compound 8 µM)
NCI-H3122	0.0933	0.129	0.0763	0.0991	0.0841	0.405	0.359	0.333	0.283	0.833	0.75	0.642	0.618	0.0921	0.965	0.948	0.913	0.692
PC-3 [JPC-3]	0.668	0.7	0.706	0.693	0.588	0.75	0.88	0.797	0.774	1.13	1.11	1.01	1.05	0.957	0.901	0.832	0.832	0.723
PC-14	0.142	0.151	0.139	0.163	0.181	0.26	0.238	0.201	0.142	0.268	0.257	0.201	0.198	0.169	0.831	0.713	0.735	0.698
RERF-LC-KJ	1.13	1.22	1.14	1.07	0.838	0.737	0.674	0.665	0.506	0.685	0.608	0.546	0.595	0.483	1.07	1.18	1.08	0.852
SK-LU-1	0.186	0.198	0.194	0.226	0.198	0.606	0.707	0.666	0.412	0.162	0.14	0.154	0.168	0.133	1.43	1.42	1.03	0.943
SW 1573	0.292	0.429	0.198	0.152	0.208	0.451	0.545	0.475	0.334	0.404	0.537	0.438	0.586	0.319	1.09	0.868	0.932	0.936
